From US20250268903A1, “RXFP1 AGONISTS” (BRISTOL-MYERS SQUIBB COMPANY, priority 2021, published 2025)

Target: T1, human RXFP1 (Homo sapiens, UniProt Q9HBX9)
T1 construct: expressed in transfected cells
T1 sequence (Q9HBX9 1-757): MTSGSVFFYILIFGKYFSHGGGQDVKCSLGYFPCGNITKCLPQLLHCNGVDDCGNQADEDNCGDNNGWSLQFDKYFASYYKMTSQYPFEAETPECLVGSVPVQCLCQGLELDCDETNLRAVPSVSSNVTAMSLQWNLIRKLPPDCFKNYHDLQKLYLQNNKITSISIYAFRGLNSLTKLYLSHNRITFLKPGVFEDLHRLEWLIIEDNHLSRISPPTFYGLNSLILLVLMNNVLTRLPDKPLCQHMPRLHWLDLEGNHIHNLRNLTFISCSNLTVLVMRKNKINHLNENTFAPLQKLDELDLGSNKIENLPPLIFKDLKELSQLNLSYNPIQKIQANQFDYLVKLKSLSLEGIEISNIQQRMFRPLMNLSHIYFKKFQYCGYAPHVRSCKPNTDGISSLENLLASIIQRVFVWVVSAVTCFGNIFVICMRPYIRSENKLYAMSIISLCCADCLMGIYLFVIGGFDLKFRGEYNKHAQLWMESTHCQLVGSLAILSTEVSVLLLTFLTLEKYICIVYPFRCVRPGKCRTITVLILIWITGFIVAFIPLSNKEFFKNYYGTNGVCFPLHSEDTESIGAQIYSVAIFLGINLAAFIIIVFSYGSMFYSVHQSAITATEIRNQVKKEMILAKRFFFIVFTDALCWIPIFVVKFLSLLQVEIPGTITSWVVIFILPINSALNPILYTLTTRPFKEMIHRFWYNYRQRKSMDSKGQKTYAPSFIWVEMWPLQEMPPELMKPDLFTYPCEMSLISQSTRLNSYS
Test: hRXFP1 HEK293 cAMP assay (HTRF)
Format: cell-based
Conditions: HEK293 cells stably expressing human RXFP1, 30 min at room temperature
How it was run: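 HEK293 cells stably expressing human RXFP1 (1500 cells/well) in HBSS/20 mM HEPES/0.05% BSA/0.5 mM IBMX. Compounds were tested at 0.010 nM–50 μM final (2% DMSO) for 30 min at room temperature. cAMP was measured by HTRF and values derived by 4-parameter logistic fit.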

Structure (SMILES)	EC50 [nM]
COc1ccc(S(=O)(=O)N2CCNCC2)cc1C(=O)NC1C2CCC(/C2=C/C(F)(F)F)[C@@H]1C(=O)Nc1ccc(F)c(C(F)(F)F)c1 (stereo partly drawn) [Example 203, (2S,3R,7Z)-N-[4-fluoro-3-(trifluoromethyl)phe-nyl]-3-[2-methoxy-5-(piperazine-1-sulfonyl)benzamido]-7-(2,2,2-trifluoroethylidene)bi-cyclo[2.2.1]heptane-2-carboxamide]	858
COc1ccc(S(=O)(=O)N2CC3COCC3C2)cc1C(=O)NC1C2CCC(/C2=C/C(F)(F)F)[C@@H]1C(=O)Nc1ccc(F)c(C(F)(F)F)c1 (stereo partly drawn) [Example 205, (2S,3R,7Z)-N-[4-fluoro-3-(trifluoromethyl)phe-nyl]-3-(5-{hexahydro-1H-furo[3,4-c]pyrrole-5-sulfonyl}-2-methoxybenzamido)-7-(2,2,2-trifluoroethylidene)bi-cyclo[2.2.1]heptane-2-carboxamide]	611
COc1ccc(S(=O)(=O)Nc2nnn[nH]2)cc1C(=O)NC1C2CCC(/C2=C/C(F)(F)F)[C@@H]1C(=O)Nc1ccc(F)c(C(F)(F)F)c1 (stereo partly drawn) [Example 206, (2S,3R,7Z)-N-[4-fluoro-3-(trifluoromethyl)phe-nyl]-3-{2-methoxy-5-[(1H-1,2,3,4-tetrazol-5-yl)sulfamoyl]benza-mido}-7-(2,2,2-trifluoroethylidene)bi-cyclo[2.2.1]heptane-2-carboxamide]	3050
COc1ccc(S(N)(=O)=O)cc1C(=O)N[C@@H]1C2CCC(C2=C(C)C)[C@@H]1C(=O)Nc1ccc(F)c(C(F)(F)F)c1 (stereo partly drawn) [Example 207, (2S,3R)-N-[4-fluoro-3-(trifluoromethyl)phenyl]-3-(2-methoxy-5-sulfamoylbenzamido)-7-(propan-2-ylidene)bicyclo[2.2.1] heptane-2-carboxamide]	890
COc1ccc(S(C)(=O)=O)cc1C(=O)N[C@@H]1C2CCC(C2=C(C)C)[C@@H]1C(=O)Nc1ccc(F)c(C(F)(F)F)c1 (stereo partly drawn) [Example 208, (2S,3R)-N-[4-fluoro-3-(trifluoromethyl)phenyl]-3-(5-methanesulfonyl-2-methoxybenzamido)-7-(propan-2-ylidene)bicyclo[2.2.1] heptane-2-carboxamide]	2600
CCN1CCN(S(=O)(=O)c2ccc(OC)c(C(=O)N[C@H]3[C@@H](C(=O)Nc4ccc(F)c(C(F)(F)F)c4)[C@H]4CC[C@@H]3/C4=C\C(F)(F)F)c2)CC1 [Example 209]	603
COc1ccc(S(=O)(=O)N2CCN(C(=O)OC(C)(C)C)CC2CCO)cc1C(=O)N[C@H]1[C@@H](C(=O)Nc2ccc(F)c(C(F)(F)F)c2)[C@H]2CC[C@@H]1/C2=C\C(F)(F)F (stereo partly drawn) [Example 215, tert-butyl 4-(3-{[(1R,2R,3S,4R,7Z)-3-{[4-fluoro-3-(trifluoromethyl)phenyl]carbamoyl}-7-(2.2,2-trifluoroethylidene)bicyclo[2.2.1]heptan-2-yl]carbamoyl}-4-methoxy-benzenesulfonyl)-3-(2-hydroxyethyl) piperazine-1-carboxylate]	761
COc1ccc(S(=O)(=O)N2CCN(C)CC2CO)cc1C(=O)N[C@H]1[C@@H](C(=O)Nc2ccc(F)c(C(F)(F)F)c2)[C@H]2CC[C@@H]1/C2=C\C(F)(F)F (stereo partly shown) [Example 218]	714

More lines, in order of falling EC50, values ahead:

EC50 [nM]	Structure (SMILES)
589	COc1ccc(S(=O)(=O)N2CCN[C@H](CO)C2)cc1C(=O)N[C@H]1[C@@H](C(=O)Nc2ccc(F)c(C(F)(F)F)c2)[C@H]2CC[C@@H]1/C2=C\C(F)(F)F [Example 212, (1R,2S,3R,4R,7Z)-N-[4-fluoro-3-(trifluoromethyl)phenyl]-3-(5-{[(3S)-3-(hydroxymethyl)piperazin-1-yl]sulfonyl}-2-methoxybenzamido)-7-(2,2,2-trifluoroethylidene) bicyclo[2.2.1] heptane-2-carboxamide]
551	COc1ccc(S(=O)(=O)N2CCN(CCCO)CC2)cc1C(=O)N[C@H]1[C@@H](C(=O)Nc2ccc(F)c(C(F)(F)F)c2)[C@H]2CC[C@@H]1/C2=C\C(F)(F)F [Example 211, (1R,2S,3R,4R,7Z)-N-[4-fluoro-3 (trifluoromethyl)phenyl]-3-(5-{[4-(3-hydroxypropyl)piperazin-1-yl]sulfonyl}-2-methoxybenzamido)-7-(2,2,2-trifluoroethylidene) bicyclo[2.2.1] heptane-2-carboxamide]
459	COc1ccc(S(=O)(=O)N2CCN3C(=O)OCC3C2)cc1C(=O)N[C@H]1[C@@H](C(=O)Nc2ccc(F)c(C(F)(F)F)c2)[C@H]2CC[C@@H]1/C2=C\C(F)(F)F (stereo partly drawn) [Example 220, (1R,2S,3R,4R,7Z)-N-[4-fluoro-3-(trifluoromethyl)phenyl]-3-[2-methoxy-5-({3-oxo-hexahydro-1H-[1,3]oxazolo[3,4-a]piperazin-7-yl}sulfonyl)benzamido]-7-(2,2,2-trifluoroethylidene) bicyclo[2.2.1] heptane-2-carboxamide]
341	COc1ccc(S(=O)(=O)N2CCN[C@@H](CO)C2)cc1C(=O)NC1C2CCC(/C2=C/C(F)(F)F)[C@@H]1C(=O)Nc1ccc(F)c(C(F)(F)F)c1 (stereo partly drawn) [Example 204, (2S,3R,7Z)-N-[4-fluoro-3-(trifluoromethyl)phe-nyl]-3-(5-{[(3R)-3-(hydroxymethyl)piper-azin-1-yl]sulfonyl}-2-methoxybenzamido)-7-(2,2,2-trifluoroethylidene)bi-cyclo[2.2.1]heptane-2-carboxamide]
331	COc1ccc(S(=O)(=O)N2CCOC[C@@H]2CO)cc1C(=O)N[C@H]1[C@@H](C(=O)Nc2ccc(F)c(C(F)(F)F)c2)[C@H]2CC[C@@H]1/C2=C\C(F)(F)F [Example 213, (1R,2S,3R,4R,7Z)-N-[4-fluoro-3-(trifluoromethyl)phenyl]-3-(5-{[(3S)-3-(hydroxymethyl)morpholin-4-yl]sulfonyl}-2-methoxybenzamido)-7-(2,2,2-trifluoroethylidene) bicyclo[2.2.1] heptane-2-carboxamide]
317	COc1ccc(S(=O)(=O)N2CCC(CCO)CC2)cc1C(=O)N[C@H]1[C@@H](C(=O)Nc2ccc(F)c(C(F)(F)F)c2)[C@H]2CC[C@@H]1/C2=C\C(F)(F)F [Example 219, (1R,2S,3R,4R,7Z)-N-[4-fluoro-3-(trifluoromethyl)phenyl]-3-(5-{[4-(2-hydroxyethyl)piperidin-1-yl]sulfonyl}-2-methoxybenzamido)-7-(2,2,2-trifluoroethylidene) bicyclo[2.2.1]heptane-2-carboxamide]
281	COc1ccc(S(=O)(=O)N2CCNCC2CCO)cc1C(=O)N[C@H]1[C@@H](C(=O)Nc2ccc(F)c(C(F)(F)F)c2)[C@H]2CC[C@@H]1/C2=C\C(F)(F)F (stereo partly drawn) [Example 216, (1R,2S,3R,4R,7Z)-N-[4-fluoro-3-(trifluoromethyl)phenyl]-3-(5-{[2-(2-hydroxyethyl)piperazin-1-yl]sulfonyl}-2-methoxybenzamido)-7-(2,2,2-trifluoroethylidene) bicyclo[2.2.1]heptane-2-carboxamide]
272	COc1ccc(S(=O)(=O)N2CC3CCC(C2)O3)cc1C(=O)N[C@H]1[C@@H](C(=O)Nc2ccc(F)c(C(F)(F)F)c2)[C@H]2CC[C@@H]1/C2=C\C(F)(F)F [Example 214, (1R,2S,3R,4R,7Z)-N-[4-fluoro-3-(trifluoromethyl)phenyl]-3-(2-methoxy-5-{8-oxa-3-azabicyclo[3.2.1]octane-3-sulfonyl}benzamido)-7-(2,2,2-trifluoroethylidene) bicyclo[2.2.1] heptane-2-carboxamide]
237	COc1ccc(S(=O)(=O)N2CCN3C(=O)CCC3C2)cc1C(=O)N[C@H]1[C@@H](C(=O)Nc2ccc(F)c(C(F)(F)F)c2)[C@H]2CC[C@@H]1/C2=C\C(F)(F)F (stereo partly drawn) [Example 210, (1R,2S,3R,4R,7Z)-N-[4-fluoro-3-(trifluoromethyl)phenyl]-3-[2-methoxy-5-({6-oxo-octabydropyrrolo [1,2-a]piperazin-2-yl}sulfonyl)benzamido]-7-(2,2,2-trifluoroethylidene) bicyclo[2.2.1] heptane-2-carboxamide]
221	COc1ccc(S(=O)(=O)N(CCO)CCO)cc1C(=O)N[C@H]1[C@@H](C(=O)Nc2ccc(F)c(C(F)(F)F)c2)[C@H]2CC[C@@H]1/C2=C\C(F)(F)F [Example 217, (1R,2S,3R,4R,7Z)-3-{5-[bis(2-hydroxyethyl)sulfamoyl]-2-methoxybenzamido}-N-[4-fluoro-3-(trifluoromethyl)phenyl]-7-(2,2,2-trifluoroethylidene) bicyclo[2.2.1] heptane-2-carboxamide]
44.9	COc1ccc(S(=O)(=O)N2CC3CCC(C2)O3)cc1C(=O)N[C@H]1[C@@H](C(=O)Nc2ccc(F)c(C(F)(F)F)c2)[C@H]2CC[C@@H]1/C2=C\C1CC1 [Example 221, (1R,2S,3R,4R,7Z)-7-(cyclopropylmethyl-idene)-N-[4-fluoro-3-(trifluoromethyl)phenyl]-3-(2-methoxy-5-{8-oxa-3-azabicyclo[3.2.1]octane-3-sulfonyl}benzamido) bicyclo[2.2.1]heptane-2-carboxamide]
